How the values were obtained:
Assay in all cases: relative viability (nuclei count vs DMSO), 5 days (fraction); higher = more cells survive
VE-821 + Crizotinib = compound: CS(=O)(=O)c1ccc(-c2cnc(N)c(C(=O)Nc3ccccc3)n2)cc1 [VE-821] + C[C@@H](Oc1cc(-c2cnn(C3CCNCC3)c2)cnc1N)c1c(Cl)ccc(F)c1Cl [Crizotinib] (partner 1 µM)
Outline: (§1)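 Nuclei were stained with Hoechst during a one-step fixation (final 0.05% Triton X-100, 1% formaldehyde, 1 ug/ml Hoechst) carried out 5 days after dosing, then counted on 4× images. The cells, lung cancer lines in 1536-well plates, had been dosed by pin tool the day after seeding with one drug alone or a fixed anchor-drug dose plus five library-drug doses (not always all listed) in √10 steps. Relative viability is the nuclei count in treated wells divided by that in vehicle wells, and each value is the median of duplicate plates.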

VE-821 + Phenformin = compound: CS(=O)(=O)c1ccc(-c2cnc(N)c(C(=O)Nc3ccccc3)n2)cc1 [VE-821] + N=C(N)NC(=N)NCCc1ccccc1 [Phenformin] (partner 250 µM)
Outline: as §1

Vismodegib + Dasatinib = compound: CS(=O)(=O)c1ccc(C(=O)Nc2ccc(Cl)c(-c3ccccn3)c2)c(Cl)c1 [Vismodegib] + Cc1nc(Nc2ncc(C(=O)Nc3c(C)cccc3Cl)s2)cc(N2CCN(CCO)CC2)n1 [Dasatinib] (partner 0.075 µM)
Outline: as §1

Ruxolitinib + Bortezomib = compound: N#CC[C@H](C1CCCC1)n1cc(-c2ncnc3[nH]ccc23)cn1 [Ruxolitinib] + CC(C)C[C@H](NC(=O)[C@H](Cc1ccccc1)NC(=O)c1cnccn1)B(O)O [Bortezomib] (partner 0.002 µM)
Outline: as §1

Cell Line	relative viability (VE-821 + Crizotinib; first compound 0.08 µM)	relative viability (VE-821 + Crizotinib; first compound 0.253 µM)	relative viability (VE-821 + Crizotinib; first compound 0.8 µM)	relative viability (VE-821 + Crizotinib; first compound 2.53 µM)	relative viability (VE-821 + Crizotinib; first compound 8 µM)	relative viability (VE-821 + Phenformin; first compound 0.08 µM)	relative viability (VE-821 + Phenformin; first compound 0.253 µM)	relative viability (VE-821 + Phenformin; first compound 0.8 µM)	relative viability (VE-821 + Phenformin; first compound 2.53 µM)	relative viability (VE-821 + Phenformin; first compound 8 µM)	relative viability (Vismodegib + Dasatinib; first compound 0.08 µM)	relative viability (Vismodegib + Dasatinib; first compound 0.253 µM)	relative viability (Vismodegib + Dasatinib; first compound 0.8 µM)	relative viability (Vismodegib + Dasatinib; first compound 2.53 µM)	relative viability (Vismodegib + Dasatinib; first compound 8 µM)	relative viability (Ruxolitinib + Bortezomib; first compound 0.08 µM)	relative viability (Ruxolitinib + Bortezomib; first compound 0.253 µM)	relative viability (Ruxolitinib + Bortezomib; first compound 0.8 µM)	relative viability (Ruxolitinib + Bortezomib; first compound 2.53 µM)	relative viability (Ruxolitinib + Bortezomib; first compound 8 µM)
201T	1.04	1.03	1.02	1.08	0.979	0.476	0.415	0.468	0.431	0.364	0.646	0.52	0.481	0.569	0.463	1.14	1.26	1.21	1.34	1.3
A549	0.896	0.656	0.607	0.689	0.271	0.182	0.214	0.157	0.13	0.103										
A-427	0.907	0.821	0.785	0.811	0.384	0.341	0.319	0.293	0.365	0.225	0.647	0.65	0.609	0.642	0.804	0.983	0.955	0.985	1.06	0.782
ABC-1	1.18	1.1	0.904	0.777	0.58	0.308	0.26	0.203	0.244	0.211	0.584	0.415	0.527	0.527	0.582	0.324	0.303	0.325	0.284	0.285
BEN	0.952	0.847	0.688	0.835	0.796	0.284	0.281	0.283	0.257	0.249	0.385	0.399	0.337	0.315	0.296	0.634	0.693	0.824	0.747	1.16
CAL-12T	0.798	0.674	0.537	0.369	0.316	0.585	0.526	0.611	0.523	0.396	0.322	0.224	0.403	0.586	0.482		0.856	1.1	0.979	0.535
COR-L23	0.731	0.76	0.695	0.726	0.562	0.444	0.438	0.472	0.502	0.427	0.507	0.455	0.543	0.452	0.533	1.16	1.03	1.06	0.9	0.758
COR-L 105	1.03	0.678	0.582	0.546	0.385	0.519	0.325	0.472	0.387	0.343	0.288	0.303	0.422	0.339	0.357	0.925	0.949	0.826	0.536	0.647
Calu-6	0.97	0.844	0.795	0.684	0.466											1.02	0.93	1.18	0.921	0.557
ChaGo-K-1	1.18	1.18	1	1.17	0.989	0.454	0.459	0.536	0.496	0.427	0.718	0.672	0.622	0.583	0.632		0.929	0.94	0.976	0.701
EBC-1	0.181	0.189	0.155	0.179	0.202											0.592	0.49	0.597	0.42	0.361
EKVX	1.25	0.93	0.849	0.958	0.878	0.241	0.223	0.204	0.221	0.226	0.491	0.561	0.604	0.576	0.526	0.785	0.994	0.986	0.989	0.929
EMC-BAC-2	0.899	0.763	0.737	0.731	0.651	0.569	0.475	0.577	0.528	0.463	0.334	0.365	0.285	0.353	0.317	1.12	1.06	1.15	1.06	0.811
EPLC-272H	1.04	0.853	0.923	1.19	0.906	0.322	0.29	0.326	0.383	0.26	0.362	0.367	0.397	0.327	0.312	0.846	0.976	0.984	0.937	0.734
H3255	1.05	0.981	0.761	1.03	0.847	0.377	0.338	0.42	0.344	0.383	0.303	0.329	0.38	0.37	0.309		0.595	0.836	0.6	0.598
HARA	1.36	1.07	1.06	1.07	0.903	0.497	0.459	0.469	0.484	0.356	0.263	0.249	0.254	0.339	0.279	1.29	1.06	1.11	0.534	1.09
HCC-15	0.989	0.817	0.906	0.982	0.854	0.625	0.473	0.506	0.526	0.438	0.631	0.58	0.582	0.66	0.585	1.08	1.05	1.01	0.99	0.926
HCC-44	0.846	0.779	0.847	1.03	0.923	0.261	0.15	0.263	0.198	0.266						0.888	0.944	0.914	0.933	0.689
HCC-78	0.344	0.368	0.338	0.352	0.336	0.646	0.639	0.746	0.731	0.617	0.32	0.33	0.363	0.475	0.351	0.379	0.365	0.441	0.354	0.391
HCC-366	0.792	0.428	0.403	0.337	0.045	0.709	0.57	0.555	0.502	0.12	0.816	0.587	0.622	0.693	0.692	1.03	0.987	1.16	1.01	0.845

Cell Line	relative viability (VE-821 + Crizotinib; first compound 0.08 µM)	relative viability (VE-821 + Crizotinib; first compound 0.253 µM)	relative viability (VE-821 + Crizotinib; first compound 0.8 µM)	relative viability (VE-821 + Crizotinib; first compound 2.53 µM)	relative viability (VE-821 + Crizotinib; first compound 8 µM)	relative viability (VE-821 + Phenformin; first compound 0.08 µM)	relative viability (VE-821 + Phenformin; first compound 0.253 µM)	relative viability (VE-821 + Phenformin; first compound 0.8 µM)	relative viability (VE-821 + Phenformin; first compound 2.53 µM)	relative viability (VE-821 + Phenformin; first compound 8 µM)	relative viability (Vismodegib + Dasatinib; first compound 0.08 µM)	relative viability (Vismodegib + Dasatinib; first compound 0.253 µM)	relative viability (Vismodegib + Dasatinib; first compound 0.8 µM)	relative viability (Vismodegib + Dasatinib; first compound 2.53 µM)	relative viability (Vismodegib + Dasatinib; first compound 8 µM)	relative viability (Ruxolitinib + Bortezomib; first compound 0.08 µM)	relative viability (Ruxolitinib + Bortezomib; first compound 0.253 µM)	relative viability (Ruxolitinib + Bortezomib; first compound 0.8 µM)	relative viability (Ruxolitinib + Bortezomib; first compound 2.53 µM)	relative viability (Ruxolitinib + Bortezomib; first compound 8 µM)
HCC-827	0.989	1.01	0.94	1.02	0.898	0.425	0.398	0.391	0.458	0.335	0.361	0.263	0.297	0.268	0.293	1.05	0.993	1.01	0.881	0.798
HOP-62	0.955	0.885	0.754	1.03	0.902	0.671	0.611	0.77	0.696	0.667	0.663	0.694	0.609	0.683	0.683		0.719	1.15	0.856	0.763
IA-LM	1.04	0.618	0.875	1.14	0.616											0.998	0.931	0.971	0.917	0.61
LC-2-ad	0.516	0.424	0.526	0.518	0.499	0.666	0.593	0.661	0.686	0.591	0.677	0.568	0.467	0.482	0.557	1.04	0.861	1.22	0.98	0.609
LCLC-97TM1	0.537	0.381	0.413	0.632	0.174	0.413	0.454	0.426	0.457	0.435	0.855	0.755	0.617	0.856	0.834	0.407	0.69	0.635	0.906	0.526
LCLC-103H	1.08	1	0.998	1.08	1.1	0.335	0.31	0.352	0.351	0.269	0.579	0.517	0.471	0.4	0.458	0.922	1.17	1.04	1.15	0.951
LK-2	0.223	0.228	0.248	0.249	0.212	0.639	0.366	0.459	0.925	0.374	0.316	0.355	0.325	0.255	0.376					
LOU-NH91	0.74	0.772	0.757	0.754	0.752	0.742	0.701	0.693	0.706	0.734	0.55	0.554	0.526	0.547	0.511	0.52	0.463	0.492	0.47	0.534
NCI-H358	0.67	0.636	0.501	0.588	0.451	0.386	0.311	0.352	0.373	0.281	0.149	0.183	0.193	0.172	0.161					
NCI-H522						0.675	0.593	0.662	0.555	0.654	0.915	0.888	0.883	0.793	0.879					
NCI-H1299	0.986	0.967	0.919	0.903	0.786											1	0.997	1.02	0.932	0.984
NCI-H1395						0.43	0.415	0.449	0.467	0.41	0.385	0.389	0.398	0.417	0.414					
NCI-H1623						0.564	0.557	0.449	0.575	0.497	0.48	0.565	0.557	0.51	0.462					
NCI-H1703	1.04	0.578	0.688	0.336	0.248											0.412	0.38	0.346	0.338	0.245
NCI-H1793						0.437	0.3	0.325	0.49	0.239		0.408	0.374	0.416	0.365					
NCI-H1944	1.25	1.05	0.956	1.14	0.696	0.235	0.2	0.172	0.238	0.157	0.228	0.213	0.201	0.242	0.204					
NCI-H2170	1.29	1.26	1.11	0.655	0.776	0.416	0.399	0.358	0.412	0.359	0.542	0.623	0.627	0.62	0.639					
NCI-H2342						0.756	0.663	0.548	0.508	0.475	0.313	0.316	0.298	0.344	0.322					
SK-MES-1	1.07	0.93	0.924	0.95	0.896	0.708	0.626	0.718	0.628	0.445	0.401	0.313	0.407	0.413	0.429					
SW 900						0.575	0.555	0.425	0.711	0.572	0.669	0.543	0.585	0.763	0.536					
